Laboratory results taken from patent US10688142B2, “Methods of treatment using a lipid extract of Passiflora seeds concentrated in its unsaponifiable fraction” (Laboratoires Expanscience, priority 2013, dated 2020).
Marks after values point to notes of the source that are not given here.

Experiments:
Assay type in all cases: cell-based
[1] = tested on: elastin; assay: Expression of dermal matrix components in normal human fibroblasts, real-time quantitative RT-PCR; details: TGFβ1 at 5 ng/ml, 24 hours
Experimental: (§1) Normal human dermal fibroblasts were incubated for 24 hours in 1 FCS culture medium in the presence of 0.005% and 0.05% Passiflora concentrate or TGFβ1 at 5 ng/ml (standard). After incubation, the total RNAs were extracted, assayed and retro-transcribed. The gene expression of collagen I and elastin were analysed by real-time quantitative RT-PCR.

[2] = tested on: collagen I; assay: as above; details: TGFβ1 at 5 ng/ml, 24 hours
Experimental: as §1

[3] = tested on: human mature adipocytes; assay: Lipolysis: release of glycerol by encapsulated mature adipocytes; details: 10 μM forskoline, 4 hours
Experimental: Human white adipose tissue carries out a fundamental metabolic function by providing the other tissues in the body with energy molecules in the form of fatty acids released by the adipocyte lipolysis process: adipocytes mobilise energy reserves by hydrolysing stored triglycerides to fatty acids and glycerol; the fatty acids thus released into the bloodstream can be used by other tissues for energy purposes. The effect of the Passiflora concentrate on adipocyte lipolysis was evaluated by assay of glycerol released during hydrolysis of the triglycerides stored in human mature adipocytes cultured in 3 dimensions.
Mature adipocytes, derived from biopsies of subcutaneous adipose tissue taken from five donors (normal-weight or overweight) were isolated and encapsulated in peptide gel allowing their survival and biological functionality in culture. The encapsulated mature adipocytes were incubated in the presence of 0.001% or 0.005% Passiflora concentrate, or 10 μM forskoline (standard) for 4 hours.
After incubation, the released glycerol was assayed in the culture medium using an assay kit (Randox), the values obtained were normalised with the amount of DNA evaluated with a kit (Invitrogen).

Row | Compound | Elastin gene expression, percentage increase relative to non-treated control [1] | Elastin (Relative Quantity) ([1]; control = 1.00) | Collagen I gene expression, percentage increase relative to non-treated control [2] | Collagen I (Relative Quantity) ([2]; control = 1.00) | Stimulation (%) of glycerol release [3] | Release of glycerol ([3]; mean of 5 donors, control 1.00)
1 | TGFβ1: TGFβ1 at 5 ng/ml (standard) in the dermal matrix gene expression test | +40% * | 1.40 | +30% ns^ | 1.30 | – | –
2 | C=C[C@@]1(C)CC(=O)[C@]2(O)[C@@]3(C)[C@@H](O)CCC(C)(C)[C@@H]3[C@H](O)[C@H](OC(C)=O)[C@@]2(C)O1 [Forskoline, forskoline] | – | – | – | – | +660% ** | 6.60 Arbitrary unit
